# Data taken from patent US20260043793A1, “MICROFLUIDIC CELL SPHEROIDS AND ORGANOIDS CULTURE INSERT FOR DISEASE MODELING AND SCREENING OF THERAPEUTICS” (APRICELL BIOTECHNOLOGY INC., priority 2022, published 2026).
# Assays:
# Format in all cases: cell-based
# vimentin surface marker = assay: Vimentin immunostaining of U251 spheroids (resistant and non-resistant) in collagen/HA ECM; conditions: 10 nm of Reelin, non-resistant in comparison to resistant spheroids
# Source text: The effect of recombinant Reelin on viability of the U251 cell spheroids or organoids was studied. […] Moreover, to study the invasive behavior of the resistant and non-resistant cell spheroids or organoids, they were embedded in Collagen/HA hydrogel. The method of cell spheroids or organoid embedding in the hydrogel is similar to that disclosed in example 1. In this study, the effect of Reelin protein in combination with ECM hydrogel on invasiveness of the cell spheroids or organoids and their invasion length using Vimentin immunostaining and florescent microscopy respectively was studied.
# Level of surface vimentin expression of the tumor cells was measured as an indication of invasiveness of cell spheroids or organoids with the ECM matrix.
# [1] = tested on: TMZ resistant U251 cell spheroids or organoids; assay: Growth and invasion of TMZ resistant U251 spheroids in Collagen/HA ECM conditioned with Reelin; conditions: for average invasion length: Collagen/HA matrix
# Procedure: (§1) To investigate and compare the invasive behavior of TMZ resistant GBM cancer cells with non-resistant cell spheroids or organoids through the ECM hydrogel, we used TMZ resistant and non-resistant U251 cell lines to make cell spheroids or organoids in the device 10 or the sector 20. The method of U251 cell spheroids or organoid formation was similar to that disclosed above.
# (§2) The effect of recombinant Reelin on viability of the U251 cell spheroids or organoids was studied. It was tested with 2 different concentrations of Reelin (1 and 100 nM) on cell spheroids or organoids in the device 10 or the sector 20. Moreover, to study the invasive behavior of the resistant and non-resistant cell spheroids or organoids, they were embedded in Collagen/HA hydrogel. The method of cell spheroids or organoid embedding in the hydrogel is similar to that disclosed in example 1. In this study, the effect of Reelin protein in combination with ECM hydrogel on invasiveness of the cell spheroids or organoids and their invasion length using Vimentin immunostaining and florescent microscopy respectively was studied.
# [2] = tested on: U251 cell spheroids or organoids; assay: Effect of recombinant Reelin on viability of U251 spheroids (live-dead); conditions: increasing Reelin concentration from 1 to 100 nM
# Procedure: as §2
# It is shown in live-dead fluorescent images by increasing the number of red cells stained with Propodeum iodide (PI) compared to the green cells stained with calcein AM after treatment with 100 nM Reelin.
# [3] = tested on: TMZ non-resistant U251 cell spheroids or organoids; assay: Growth and invasion of TMZ non-resistant U251 spheroids in Collagen/HA ECM conditioned with Reelin
# Procedure: as §1, §2
# [4] = 10 nM Reelin, in response to TMZ
substance,measurement,setting,value
Reelin: recombinant Reelin protein used alone or in combination with ECM hydrogel,fluorescent intensity index of the vimentin surface marker,vimentin surface marker,higher fluorescent intensity index
same,average invasion length,[1]; 10 nM Reelin,around 400 μm
same,invasion length in Reelin conditioned matrix compared to normal matrix,[1]; [4],reverse
same,average invasion length,[1]; 100 nM Reelin,drops significantly
same,inhibitory effect on growth (diameter),"[1]; higher concentrations of Reelin, day 3, compared with non-resistant",less
same,cell viability,[2],significant decrease in cell viability
same,invasion length in Reelin treated matrix compared to normal ECM matrix,[3]; [4],higher invasion length
same,size increase of spheroids over time (diameter),"[3]; each Reelin concentration, day 0 to 3, compared with resistant spheroids",more significant
same,growth of cell spheroids or organoids (diameter),"[3]; higher concentrations of Reelin, day 3",more inhibitory effect on the growth
same,invasion length,"[3]; increasing concentrations of Reelin, Collagen/HA matrix",constantly increasing
